This is an account of results in patent US10766914B2, “DNA alkylating agents” (OBI PHARMA, INC., priority 2015, dated 2020).

Series [1] has as its system NCI-H660. The series can be described thus: TH2870 sensitivity in prostate cancer cell lines. The format is cell-based. The settings on record: Homo sapiens.
For series [2], the system named is H460 cells. The series can be described thus: Proliferation assay in H460 cells (2 hr exposure, AlamarBlue). The conditions noted are these: Homo sapiens, NCI-H460, 2 hrs exposure, wash, 70 hrs growth, read-out: IC 50 in proliferation assay in H460 cells. The format is cell-based, human. The method, boiled down: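 H460 cells seeded at 4×10^3/well, grown 24 h, then exposed to compound for 2 h at 37 °C. Drug was washed off and cells were regrown 70 h in fresh medium. Viable cells were read by AlamarBlue, and IC50 was taken as the concentration giving 50% growth inhibition.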

Series [3] can be described thus: Example 4-D body weight change and lethal toxicity, A549 xenograft study. The conditions noted are these: for Lethal Tox: 10 animals per group. The format is in vivo, female nude mice (nu/nu). Here is the method:
Cells were mixed with Matrigel (50% with exception for 30% in the H460) and 0.2 ml per mouse were subcutaneously implanted to the flank area of the animals. When tumor size reached 100-150 250 mm3, mice were randomized into experimental or vehicle groups with 10 mice/group and treatment was started (Day 1). The tested compounds were formulated in 5% DMSO in D5W. The regimens employed in the examples include IP, QD×5/wk (5 days on, 2 days off) as one cycle, for a total of 2 cycles; IP, once; IP, weekly for total 3 weeks; and IV, weekly for 3 weeks. Tumor growth and body weight were measured twice a week. Tumor volume was calculated as (length×width2)/2. Drug efficacy was assessed as Tumor Growth Inhibition (TGI) and Tumor Growth Delay (TGD). TGI was defined as (1−ΔT/ΔC)×100, where ΔT/ΔC presented the ratio of the change in mean (or median, if variation within the group was relatively large) tumor volume of the treated group and of the control group. TGD was calculated as the extra days for the treated tumor to reach 500 mm3 or 1000 mm3 as compared to the control group. Animals were culled when individual tumor size reached over 2000 mm3 or mean tumor volume exceeded 1000 mm3 in the group. Data are expressed as the mean±SEM. One-way analysis of variance with Dunnett post comparison test (GraphPad Prism 4) or two-tailed student's t-test were used for analysis. A P level <0.05 was considered statistically significant.
The compounds were tested in another A549 model. The compounds were dosed as follows. Daily IP dosing: 5 doses then 2 days off then 5 more doses starting at 100 mm^3 tumors on day 1 (10 animals per group average tumor volume). The antitumor effects and the safety of administration are graphically illustrated below.

Series [4] concerns SK-HEP-1. The series can be described thus: TH2870 sensitivity in liver cancer cells. The format is cell-based, human.
Series [5] deals with A375 melanoma human tumor xenograft. The series can be described thus: Example 4-C antitumor efficacy, ectopic A375 melanoma xenograft model. The settings on record: qd × 5 × 2, ip. The format is in vivo, female nude mice (nu/nu).
In series [6] the test system is LIXC-011. The series can be described thus: TH2870 sensitivity in liver cancer cells. The format is cell-based, human. The settings on record: AKR1C3 expression ++++.

A value given as a limit tells only on which side of the number the result lay.

`CC(OP(=O)(N1CC1)N1CC1)c1ccc([N+](=O)[O-])c(Oc2cccc(C(=O)N(C)C)c2)c1` (stereo not shown) [Compound 2870]: the IC50 in series [1] was more than 300 nM; in series [2], 0.4 nM; in series [4] (Homo sapiens, SK-HEP1, AKR1C3 expression /, read-out: RelIC50), more than 1000 nM; in series [6] (Homo sapiens, read-out: RelIC50) it was 40.8 nM. The “Max. BW loss %” value in series [3] (20 mg/kg IP QD × 5/wk × 2 wks) was found to be 0.3%; in series [3] (40 mg/kg IV 2/wk × 2 wks) it was 2.0%. The “Lethal Tox” value in series [3] (20 mg/kg IP QD × 5/wk × 2 wks) stood at 0; in series [3] (40 mg/kg IV 2/wk × 2 wks), 1. Further, the “Max Inhibition %” value in series [4] (AKR1C3 expression /) is given as 44.3%; in series [6], 97.4%. In addition, the “TGD 500” value in series [5] (20 mpk) turned out to be 24 days. Besides, the “TGD 1000” value in series [5] (20 mpk) was more than 18 days. Also, the inhibition in vivo at 20 mg/kg in series [5] (Mus musculus, A-375, 20 mpk, read-out: TGI) was found to be 98%.
